# How the values were obtained:
# [1] = system: HBB gene locus and mRNA transcribed from HBB in CD34+ HSPCs; experiment: Editing efficiency in genomic DNA and in HBB mRNA (Example 5); format: cell-based, human; settings: genomic DNA, 48 hours post electroporation; 1 μM or 3 μM
# Procedure: At 48 hours post electroporation genomic DNA was isolated from the edited cells and HDR to introduce the sickle mutation and INDEL frequencies were evaluated using next gene sequencing and computational analysis. On day 10 of differentiation, incorporation of the SCD mutation and frequency of INDELs present in mRNA transcribed from the HBB gene locus of edited cells was determined using RNA amplicon sequencing.
# NBSGW mice [2] = experiment: Engraftment and persistence of gene-editing after in vivo administration of CD34+ HSPCs edited with T107 RNP, AAV.310 and Compound 984 (Example 14); parameters: species or system mouse; settings: 16 weeks; T107 RNP+AAV.310 in the presence of Compound 984
# Procedure: (§1) The cells were electroporated and immediately plated in medium only or medium containing Compound 984 at 3 μM. […] Genomic DNA was harvested from edited cells and used to evaluate HDR efficiency by […] as described in Example 1.
# (§2) Following two days of in vitro culture, HSPCs were administered by intravenous injection to NBSGW mice at a dose of 0.5×10^6 cells per mouse. Recipient mice were treated with sublethal irradiation (100 cGy) at 1 day prior to administration of HSPCs. […] In total three independent replicates of the study were performed.
# (§3) Bone marrow and peripheral blood was extracted at 16 weeks following HSPC administration and evaluated for presence of human hematopoietic cells using flow cytometry as described in Example 2. The percent chimerism (percentage of human CD45+ cells relative total cells expressing human CD45 or mouse CD45) in mouse bone marrow and peripheral blood is respectively shown in FIGS. 14A-14B.
# (§4) Additionally, the lineage of human CD45+ cells was determined using markers for human B cells, T cells, myeloid cells, and HSPCs as described in Example 2.
# (§5) The long term persistence of edits in the HBB gene present in HSPCs administered to each mouse cohorts was evaluated in genomic DNA extracted from bone marrow collected at 16 weeks. The frequency of donor template-encoded gene-edits in the HBB gene incorporated by HDR was quantified by NGS and is shown in FIG. 14D. […]
# [3] = as above; parameters: species or system mouse; settings: T107 RNP+AAV.310 in the presence of Compound 984 (3 μM)
# Procedure: as §1, §2, §3, §4, §5
# NBSGW mice [4] = experiment: In vivo engraftment and persistence of gene-edits of CD34+ HSPCs edited with T107 RNP, AAV and inhibitors (Example 6); parameters: species or system mouse; settings: 16 weeks, with or without inhibitor
# Procedure: Following two days of in vitro culture, HSPCs were administered by intravenous injection to NBSGW mice at a dose of 0.5×10^6 cells per mouse. Recipient mice were treated with sublethal irradiation (100 cGy) at 1 day prior to administration of HSPCs.
# Blood and bone marrow were extracted at 16 weeks following HSPC administration and were evaluated for presence of human hematopoietic cells using flow cytometry as described in Example 2. Additionally, the lineage of human CD45+ cells was determined using markers for human B cells, T cells, myeloid cells, and HSPCs as described in Example 2.
# The long term persistence of gene-edited (in HBB gene) HSPCs was evaluated in genomic DNA extracted from mouse bone marrow collected at 16 weeks. The frequency of donor template-encoded gene-edits incorporated in HBB by HDR and the frequency of INDELs at the T107 cut site were quantified by NGS, and are shown in FIG. 7I and FIG. 7J respectively.
# [5] = system: human HBB gene locus in CD34+ HSPCs; experiment: In vitro editing of HBB in CD34+ HSPCs with RNP and AAV donor template; HDR and INDELs by NGS (Example 1); format: cell-based; settings: T107 RNP+AAV.320 with i53 (1 μg mRNA)
# Procedure: Gene-editing of HBB was evaluated in CD34+ HSPCs. […] HSPCs were maintained in culture media containing IL-3 and were incubated at 37° C. under atmospheric conditions containing 5% carbon dioxide and 4% oxygen. […] To perform gene-editing, the cells were electroporated with RNP. Specifically, 1×10^6 cells were electroporated using the Maxcyte HSC-3 program with RNP containing 20 μg SpCas9 and 20 μg sgRNA (T107 or R02). AAV donor template was administered to cells prior to electroporation. Specifically, the cells were incubated with AAV (AAV.320 or AAV.323 respectively) at a dose of 10,000 MOI for one hour prior to electroporation.
# Given efficiency of HDR repair is poor due to competition with other repair pathways (e.g., the NHEJ pathway), particularly in non-dividing or slowly dividing cells such as HSPCs, editing was also evaluated following treatment with molecules that inhibit targets in the NHEJ pathway, including 53BP1 and DNA-PK. […]
# To evaluate HDR editing efficiency, genomic DNA was harvested from treated cells, and the frequency of the HBB allele encoding the expected gene edit (i.e., GAA encoding glutamate at position 6 downstream the HBB start codon (“E6”) for cells transduced with AAV.323 and silent mutations for cells transduced with AAV.320) was evaluated using a PCR amplification-based assay followed by next-generating sequencing (NGS). […]
# HBB locus in CD34+ HSPCs = experiment: In vitro editing of HBB in CD34+ HSPCs with T223 RNP and AAV.321 (Example 9); format: cell-based, human; settings: T223 RNP+AAV.321-edited cells treated with i53
# Procedure: Gene-editing of HBB was evaluated using CD34+ HSPCs that were derived and maintained in culture as described in Example 1. HSPCs were subjected to gene-editing following two days of culture. To perform gene-editing, the cells were electroporated with RNP. Specifically, 5×10^6 cells were electroporated using the Maxcyte Buffer/HSC-3 program with RNP containing 20 μg SpCas9 and 20 μg sgRNA (T223 or R02). Cells were transfected with corresponding AAV donor template at a dose of 10,000 MOI (AAV.321 or AAV.323 respectively). The effect of 53BP1 inhibition and DNA-PK inhibitions on editing with RNP+AAV was also evaluated by treating cells with […] or 1 μg i53 mRNA+1 μM Nu7441.
# The cells were cultured for two days following electroporation and prior to evaluation of editing efficiency. To evaluate editing efficiency, genomic DNA was harvested from edited cells, and frequency of HDR and frequency of INDELs at the predicted gRNA cut site was evaluated as described in Example 1.
Molecule,frequency of INDELs at the T107 cut site compared to cells edited with T107 RNP+AAV.310 only [1],level of HDR repair compared to cells edited with T107 RNP+AAV.310 only [1],frequency of gene-edits in mouse bone marrow vs CD34+ HSPCs prior to transplantation (NBSGW mice [2]),frequency of gene-edits (HDR) in CD34+ HSPCs prior to transplantation [3],percent chimerism in mouse bone marrow and blood (NBSGW mice [4]),HDR efficiency (donor-template-encoded gene-edit in HBB) [5],frequency of INDELs at the T223 cut site (HBB locus in CD34+ HSPCs),frequency of genomic DNA incorporating the E6V gene-edit (HBB locus in CD34+ HSPCs)
[2H]c1nc(C)nc([2H])c1-c1cc(NC[C@@H](C)c2cccc3c(C(=O)NC)ccnc23)ncn1 [Compound 984],decreased,increased,comparable,approximately 45%,comparable,–,–,–
"i53: polypeptide inhibitor of 53BP1 (SEQ ID NO: 11), introduced as an mRNA-encoded protein (ORF SEQ ID NO: 10)",–,–,–,–,comparable,approximately 25%,reduced,improved

# — US12497614B2, “Compositions and methods for editing beta-globin for treatment of hemaglobinopathies” (Vertex Pharmaceuticals Incorporated, priority 2020, dated 2025)
